Measured values as given in US6528494B2 (priority 1996, dated 2003).
Structures can show the parent of a compound that is named as a salt. Values belong to the molecule of their own block, whether it stands above or below them.

What was measured:
Type in all cases: cell-based
adenosine 2a receptor = adenosine 2a receptor (Homo sapiens, UniProt P29274); assay: Agonist activity against adenosine 2a receptor (CHO cells, cAMP/SPAP reporter); details: CHO cells transfected with human receptor; basal cAMP via SPAP; mean of all the versions tested
Sequence of adenosine 2a receptor (P29274 whole entry): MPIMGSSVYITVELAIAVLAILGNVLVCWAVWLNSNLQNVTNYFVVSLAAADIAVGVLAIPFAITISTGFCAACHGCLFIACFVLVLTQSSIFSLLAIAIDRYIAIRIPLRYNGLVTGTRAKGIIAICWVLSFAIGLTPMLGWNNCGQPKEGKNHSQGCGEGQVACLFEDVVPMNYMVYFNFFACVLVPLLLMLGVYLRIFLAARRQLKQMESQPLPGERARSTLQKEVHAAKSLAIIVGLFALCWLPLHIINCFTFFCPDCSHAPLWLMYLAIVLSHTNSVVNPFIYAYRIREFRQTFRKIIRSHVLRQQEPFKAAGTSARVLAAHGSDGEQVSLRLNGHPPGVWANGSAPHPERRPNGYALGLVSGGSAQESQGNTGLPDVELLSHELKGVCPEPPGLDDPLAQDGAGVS
Experimental: (§1) (1) Agonist activity against adenosine 2a, adenosine 1 and adenosine 3 receptor subtypes.
(§2) The effect of test compounds was determined by their effects on basal levels of cAMP (A2a) or on forskolin-enhanced cAMP (A1 and A3) as reflected by changes in levels of SPAP.

adenosine 1 receptor = target: T1, adenosine 1 receptor (Homo sapiens, UniProt P30542); assay: Agonist activity against adenosine 1 receptor (CHO cells, forskolin-enhanced cAMP/SPAP reporter); details: CHO cells transfected with human receptor; forskolin-enhanced cAMP via SPAP; mean of all the versions tested
T1 sequence (P30542 1-326): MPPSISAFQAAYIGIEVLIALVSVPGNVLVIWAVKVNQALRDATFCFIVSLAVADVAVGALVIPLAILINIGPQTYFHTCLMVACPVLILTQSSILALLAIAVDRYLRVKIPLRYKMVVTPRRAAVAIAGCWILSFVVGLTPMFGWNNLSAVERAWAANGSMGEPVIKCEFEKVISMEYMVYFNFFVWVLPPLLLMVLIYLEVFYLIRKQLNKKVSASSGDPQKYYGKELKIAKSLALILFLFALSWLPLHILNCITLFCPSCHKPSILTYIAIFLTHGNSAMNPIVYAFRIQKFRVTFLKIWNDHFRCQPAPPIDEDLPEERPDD
Experimental: as §1, §2

adenosine 3 receptor = target: T2, adenosine 3 receptor (Homo sapiens, UniProt P0DMS8); assay: Agonist activity against adenosine 3 receptor (CHO cells, forskolin-enhanced cAMP/SPAP reporter); details: CHO cells transfected with human receptor; forskolin-enhanced cAMP via SPAP; mean of all the versions tested
T2 sequence (P0DMS8 1-318): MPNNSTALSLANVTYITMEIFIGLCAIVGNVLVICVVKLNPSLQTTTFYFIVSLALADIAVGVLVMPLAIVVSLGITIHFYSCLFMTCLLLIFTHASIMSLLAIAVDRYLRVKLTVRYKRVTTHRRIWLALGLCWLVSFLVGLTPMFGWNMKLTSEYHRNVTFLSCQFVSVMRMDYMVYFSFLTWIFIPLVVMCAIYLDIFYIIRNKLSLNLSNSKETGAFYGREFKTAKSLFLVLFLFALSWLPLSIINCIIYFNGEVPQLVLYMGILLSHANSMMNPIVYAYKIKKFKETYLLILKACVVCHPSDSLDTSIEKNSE
Experimental: as §1, §2

Molecule: Cn1cnc(CCNc2nc(NCCC3CCCCC3)c3ncn([C@@H]4O[C@H](c5nnn(C)n5)[C@@H](O)[C@H]4O)c3n2)c1.O=CO [Example 31, (2R,3R,4S,5R)-2-{6-(2-Cyclohexyl-ethylamino)-2-[2-(1-methyl-1H-imidazol-4-yl)-ethylamino]-purin-9-yl}-5-(2-methyl-2H-tetrazol-5-yl)-tetrahydro-furan-3,4-diol Formate]
- A2a EC50 as a ratio of that of NECA (adenosine 2a receptor): 0.49
- A1 EC50 as a ratio of that of NECA (adenosine 1 receptor): >=3680
- A3 EC50 as a ratio of that of NECA (adenosine 3 receptor): >100

Molecule: CC(C)n1nnc([C@H]2O[C@@H](n3cnc4c(NC5CCCC5)nc(NCCc5cn(C)cn5)nc43)[C@H](O)[C@@H]2O)n1.O=CO [Example 41, (2R,3R,4S,5R)-2-{6-Cyclopentylamino-2-[2-(1-methyl-1H-imidazol-4-yl)-ethylamino]-purin-9-yl}-5-(2-isopropyl-2H-tetrazol-5-yl)-tetrahydro-furan-3,4-diol Formate]
- A2a EC50 as a ratio of that of NECA (adenosine 2a receptor): 0.73
- A1 EC50 as a ratio of that of NECA (adenosine 1 receptor): 28.9
- A3 EC50 as a ratio of that of NECA (adenosine 3 receptor): >232

Molecule: Cn1cnc(CCNc2nc(NCc3cccc(I)c3)c3ncn([C@@H]4O[C@H](c5nnn(C)n5)[C@@H](O)[C@H]4O)c3n2)c1.O=CO [Example 29, (2R,3R,4S,5R)-2-{6-(3-Iodo-benzylamino)-2-[2-(1-methyl-1H-imidazol-4-yl)-ethylamino]-purin-9-yl}-5-(2-methyl-2H-tetrazol-5-yl)-tetrahydro-furan-3,4-diol Formate]
- A2a EC50 as a ratio of that of NECA (adenosine 2a receptor): 0.87
- A1 EC50 as a ratio of that of NECA (adenosine 1 receptor): >3561
- A3 EC50 as a ratio of that of NECA (adenosine 3 receptor): >105

Molecule: CCn1nnc([C@H]2O[C@@H](n3cnc4c(N)nc(NCCc5ccc(O)cc5)nc43)[C@H](O)[C@@H]2O)n1.O=CO [Example 16, (2R,3R,4S,5R)-2-{6-Amino-2-[2-(4-hydroxy-phenyl)-ethylamino]-purin-9-yl}-5-(2-ethyl-2H-tetrazol-5-yl)-tetrahydro-furan-3,4-diol Formate]
- A2a EC50 as a ratio of that of NECA (adenosine 2a receptor): 0.3
- A1 EC50 as a ratio of that of NECA (adenosine 1 receptor): 516.4
- A3 EC50 as a ratio of that of NECA (adenosine 3 receptor): >209

Molecule: CCn1nnc([C@H]2O[C@@H](n3cnc4c(NCC(c5ccccc5)c5ccccc5)nc(NCCN5CCCCC5)nc43)[C@H](O)[C@@H]2O)n1.O=C(O)C(F)(F)F.O=C(O)C(F)(F)F [Example 46]
- A2a EC50 as a ratio of that of NECA (adenosine 2a receptor): 1.37
- A1 EC50 as a ratio of that of NECA (adenosine 1 receptor): 64.00
- A3 EC50 as a ratio of that of NECA (adenosine 3 receptor): >216

Molecule: COc1ccc(CCNc2nc(N)c3ncn([C@@H]4O[C@H](c5nnn(C)n5)[C@@H](O)[C@H]4O)c3n2)cc1OC.O=CO [Example 38, (2R,3R,4S,5R)-2-{6-Amino-2-[2-(3,4-dimethoxy-phenyl)-ethylamino]-purin-9-yl}-5-(2-methyl-2H-tetrazol-5-yl)-tetrahydro-furan-3,4-diol Formate]
- A2a EC50 as a ratio of that of NECA (adenosine 2a receptor): 0.13
- A1 EC50 as a ratio of that of NECA (adenosine 1 receptor): 946
- A3 EC50 as a ratio of that of NECA (adenosine 3 receptor): >315

Molecule: Cn1cnc(CCNc2nc(NCc3ccccc3)c3ncn([C@@H]4O[C@H](c5nnn(C)n5)[C@@H](O)[C@H]4O)c3n2)c1.O=CO [Example 30, (2R,3R,4S,5R)-2-{6-Benzylamino-2-[2-(1-methyl-1H-imidazol-4-yl)-ethylamino]-purin-9-yl}-5-(2-methyl-2H-tetrazol-5-yl)-tetrahydro-furan-3,4-diol Formate]
- A2a EC50 as a ratio of that of NECA (adenosine 2a receptor): 0.43
- A1 EC50 as a ratio of that of NECA (adenosine 1 receptor): >7976
- A3 EC50 as a ratio of that of NECA (adenosine 3 receptor): >105

Molecule: CC(=O)O.CCC(CC)Nc1nc(NCCc2cn(C)cn2)nc2c1ncn2[C@@H]1O[C@H](c2nnn(CC)n2)[C@@H](O)[C@H]1O [Example 6, (2R,3R,4S,5R)-2-{6-(1-Ethyl-propylamino)-2-[2-(1-methyl-1H-imidazol-4-yl)-ethylamino]-purin-9-yl}-5-(2-ethyl-2H-tetrazol-5-yl)-tetrahydro-furan-3,4-diol Acetate]
- A2a EC50 as a ratio of that of NECA (adenosine 2a receptor): 0.14
- A1 EC50 as a ratio of that of NECA (adenosine 1 receptor): 34.4
- A3 EC50 as a ratio of that of NECA (adenosine 3 receptor): >256

Molecule: CC(=O)O.CCn1nnc([C@H]2O[C@@H](n3cnc4c(NCCC(C)(C)C)nc(NCCNc5ccccn5)nc43)[C@H](O)[C@@H]2O)n1 [Example 51, (2R,3R,4S,5R)-2-{6-(3,3-Dimethyl-butylamino)-2-[2-(pyridin-2-ylamino)-ethylamino]-purin-9-yl}-5-(2-ethyl-2H-tetrazol-5-yl)-tetrahydro-furan-3,4-diol Acetate]
- A2a EC50 as a ratio of that of NECA (adenosine 2a receptor): 1.46
- A1 EC50 as a ratio of that of NECA (adenosine 1 receptor): 144.00
- A3 EC50 as a ratio of that of NECA (adenosine 3 receptor): >42

The remaining lines, values ahead:

- A2a EC50 as a ratio of that of NECA (adenosine 2a receptor): 5.56
- A1 EC50 as a ratio of that of NECA (adenosine 1 receptor): 520.50
- A3 EC50 as a ratio of that of NECA (adenosine 3 receptor): >189
Molecule: CCn1nnc(C2OC(n3cnc4c(NCC(c5ccccc5)c5ccccc5)nc(NCCNC(=N)N)nc43)C(O)C2O)n1 (stereo not drawn) [Example 82, N-(2-{6-(2,2-Diphenyl-ethylamino)-9-[5R-(2-ethyl-2H-tetrazol-5-yl)-3R,4S-Dihydroxy-tetrahydro-furan-2R-yl]-9H-purin-2-ylamino}-ethyl)-guanidine bis(Trifluoroacetate)]

- A2a EC50 as a ratio of that of NECA (adenosine 2a receptor): 6.36
- A1 EC50 as a ratio of that of NECA (adenosine 1 receptor): 321.00
- A3 EC50 as a ratio of that of NECA (adenosine 3 receptor): >195
Molecule: CCn1nnc(C2OC(n3cnc4c(NCCc5ccccc5)nc(NCCN5CCCCC5)nc43)C(O)C2O)n1.O=CO.O=CO [Example 102, (2R,3S,4R,5R)-2-(2-Ethyl-2H-tetrazol-5-yl)-5-[6-phenethylamino-2-(2-piperidin-1-yl-ethylamino)-purin-9-yl]-tetrahydro-furan-3,4-diol Diformate]

- A2a EC50 as a ratio of that of NECA (adenosine 2a receptor): 6.60
- A1 EC50 as a ratio of that of NECA (adenosine 1 receptor): 515.30
- A3 EC50 as a ratio of that of NECA (adenosine 3 receptor): >148
Molecule: CCn1nnc(C2OC(n3cnc4c(NCCN5CCCCC5)nc(NC(CO)Cc5ccccc5)nc43)C(O)C2O)n1 [Example 69, (2R,3S,4R,5R)-2-(2-Ethyl-2H-tetrazol-5-yl)-5-[2-(1S-hydroxymethyl-2-phenyl-ethylamino)-6-(2-piperidin-1-yl-ethylamino)-purin-9-yl]-tetrahydro-furan-3,4-diol Formate]

- A2a EC50 as a ratio of that of NECA (adenosine 2a receptor): 4.00
- A1 EC50 as a ratio of that of NECA (adenosine 1 receptor): 31.00
- A3 EC50 as a ratio of that of NECA (adenosine 3 receptor): >181
Molecule: (2R,3S,4R,5R)-2-(2-Ethyl-2H-tetrazol-5-yl)-5-[6-(1S-hydroxymethyl-2-ethylamino)-2-(2-morpholin-4-yl-ethylamino)-purin-9-yl]-tetrahydro-furan-3,4-diol Formate [Example 78]

- A2a EC50 as a ratio of that of NECA (adenosine 2a receptor): 5.71
- A1 EC50 as a ratio of that of NECA (adenosine 1 receptor): 292.70
- A3 EC50 as a ratio of that of NECA (adenosine 3 receptor): >127
Molecule: CCn1nnc(C2OC(n3cnc4c(NCc5cccc(I)c5)nc(NC5CCC(N)CC5)nc43)C(O)C2O)n1.O=CO.O=CO [Example 100, (2R,3R,4S,5R)-2-[2-(trans-4-Amino-cyclohexylamino)-6-(3-iodo-benzylamino)-purin-9-yl]-5-(2-ethyl-2H-tetrazol-5-yl)-tetrahydro-furan-3,4-diol Diformate]

- A2a EC50 as a ratio of that of NECA (adenosine 2a receptor): 2.41
- A1 EC50 as a ratio of that of NECA (adenosine 1 receptor): 245.90
- A3 EC50 as a ratio of that of NECA (adenosine 3 receptor): >267
Molecule: CCC(CC)Nc1nc(NCCN2CCCC2)nc2c1ncn2C1OC(c2nnn(C)n2)C(O)C1O.O=CO.O=CO [Example 90, (2R,3R,4S,5R)-2-[6-(1-Ethyl-propylamino)-2-(2-pyrrolidin-1-yl-ethylamino)-purin-9-yl]-5-(2-methyl-2H-tetrazol-5-yl)-tetrahydro-furan-3,4-diol Diformate]

- A2a EC50 as a ratio of that of NECA (adenosine 2a receptor): 0.53
- A1 EC50 as a ratio of that of NECA (adenosine 1 receptor): 89.3
- A3 EC50 as a ratio of that of NECA (adenosine 3 receptor): >549
Molecule: CCn1nnc([C@H]2O[C@@H](n3cnc4c(NCC(c5ccccc5)c5ccccc5)nc(N[C@H]5CC[C@H](N)CC5)nc43)[C@H](O)[C@@H]2O)n1 (relative stereo) [Example 1, rel-(2R,3R,4S,5R)-2-[2-(trans-4-Amino-cyclohexylamino)-6-(2,2-diphenylethylamino)-purin-9-yl]-5-(2-ethyl-2H-tetrazol-5-yl)-tetrahydro-furan-3,4-diol]

- A2a EC50 as a ratio of that of NECA (adenosine 2a receptor): 1.61
- A1 EC50 as a ratio of that of NECA (adenosine 1 receptor): 348.11
- A3 EC50 as a ratio of that of NECA (adenosine 3 receptor): >320
Molecule: CCC(CC)Nc1nc(NC2CCC(N)CC2)nc2c1ncn2C1OC(c2nnn(C)n2)C(O)C1O.O=CO.O=CO [Example 87, (2R,3R,4S,5R)-2-[2-(trans-4-Amino-cyclohexylamino)-6-(1-ethyl-propylamino)-purin-9-yl]-5-(2-methyl-2H-tetrazol-5-yl)-tetrahydro-furan-3,4-diol Diformate]

- A2a EC50 as a ratio of that of NECA (adenosine 2a receptor): 2.34
- A1 EC50 as a ratio of that of NECA (adenosine 1 receptor): 1413.00
- A3 EC50 as a ratio of that of NECA (adenosine 3 receptor): >240
Molecule: Cn1nnc(C2OC(n3cnc4c(NCC(c5ccccc5)c5ccccc5)nc(NCCc5ccccn5)nc43)C(O)C2O)n1.O=CO.O=CO (stereo not drawn) [Example 97]
